Measurements reported in US20090156666A1, “NOVEL COMPOSITIONS AND USE THEREOF FOR THE TREATMENT, CO-TREATMENT OR PREVENTION OF INFLAMMATORY DISORDERS” (priority 2007, published 2009).
pIC50: −log10 of the molar value.

Columns and labels:
MMP-9 = test: Gene expression (mRNA, RT-PCR) in normal human chondrocytes: MMP-9 (catabolic); format: cell-based; details: 50 μmol/L; stim. 4 hrs; % of IL1β-treated cells (100%)
Excerpt: (§1) Catabolic events are controlled by the expression of genes, e.g. those genes that encode matrix metalloproteinases (MMPs) that eventually break down collagen or proteoglycans (ADAMTS-4, -5). Of the MMPs, MMP-1 and MMP-3 have a major role in breaking down the ECM in cartilage degradation. Some genes including TIMPS-1 (tissue-inhibitor of MMPs) have anti-catabolic effects and thus contribute to prevention of tissue erosion. The effect of a MA/HO (1:3 w/w) mixture in combination with glucosamine was tested on the expression of human aggrecan, collagen I, collagen II, or chondrocyte transcription factors (SOX-6, -9) in vitro in normal human chondrocytes (derived from knee) (CC-2550; Cambrex, respectively). A control experiment without the compounds was done concomitantly to compare the expression of these genes (percentage expression of gene in controls was set to 100%). […] The level of mRNA was determined by RT-PCR (Richard et al. Mol. Nutr. Food Res. 49, 431-442, 2005) and expressed relative to the level observed in cells cultured without the substances. The given values indicate the level of gene expression (in % of unstimulated cells [set at 100%] for anabolic and anti-catabolic genes; in % of IL1β-treated cells [set at 100%], for catabolic genes). […] Yet, when combined the observed increase in gene expression exceeded the expected one reflecting synergism.

TMP-I = test: Gene expression (mRNA, RT-PCR) in normal human chondrocytes: TMP-I (anti-catabolic); format: cell-based; details: 50 μmol/L; 4 hrs; % of unstimulated cells (100%)
Excerpt: as §1

collagen II = test: Gene expression (mRNA, RT-PCR) in normal human chondrocytes: collagen II; format: cell-based; details: 50 μmol/L; 4 hrs; % of unstimulated cells (100%)
Procedure: as §1, with “The” for “Catabolic events are controlled by the expression of genes, e.g. those genes that encode matrix metalloproteinases (MMPs) that eventually break down collagen or proteoglycans (ADAMTS-4, -5). Of the MMPs, MMP-1 and MMP-3 have a major role in breaking down the ECM in cartilage degradation. Some genes including TIMPS-1 (tissue-inhibitor of MMPs) have anti-catabolic effects and thus contribute to prevention of tissue erosion. The”

ADAMTS-4 = test: Gene expression (mRNA, RT-PCR) in normal human chondrocytes: ADAMTS-4 (catabolic); format: cell-based; details: 50 μmol/L; unstim. 4 d; % of control (100%)
Excerpt: as §1, with “The given values indicate the level of gene expression (in % of unstimulated cells [set at 100%] for anabolic and anti-catabolic genes; in % of IL1β-treated cells [set at 100%], for catabolic genes).” left out

human aggrecan = test: Gene expression (mRNA, RT-PCR) in normal human chondrocytes: aggrecan; format: cell-based; details: 50 μmol/L; 4 hrs; % of unstimulated cells (100%)
Procedure: as §1, with “The” for “Catabolic events are controlled by the expression of genes, e.g. those genes that encode matrix metalloproteinases (MMPs) that eventually break down collagen or proteoglycans (ADAMTS-4, -5). Of the MMPs, MMP-1 and MMP-3 have a major role in breaking down the ECM in cartilage degradation. Some genes including TIMPS-1 (tissue-inhibitor of MMPs) have anti-catabolic effects and thus contribute to prevention of tissue erosion. The”

[1] = test system: nitric oxide (NO) synthesis in RAW264.7 cells; test: Inhibition of nitric oxide synthesis in LPS-stimulated RAW264.7 macrophages (Griess reaction); format: cell-based, murine; details: single substances
collagen I = test: Gene expression (mRNA, RT-PCR) in normal human chondrocytes: collagen I; format: cell-based; details: 50 μmol/L; 4 hrs; % of unstimulated cells (100%)
Procedure: as §1, with “The” for “Catabolic events are controlled by the expression of genes, e.g. those genes that encode matrix metalloproteinases (MMPs) that eventually break down collagen or proteoglycans (ADAMTS-4, -5). Of the MMPs, MMP-1 and MMP-3 have a major role in breaking down the ECM in cartilage degradation. Some genes including TIMPS-1 (tissue-inhibitor of MMPs) have anti-catabolic effects and thus contribute to prevention of tissue erosion. The”

pIC50 ([1]; Mus musculus, LPS 1 μg/ml, 24 hours): < 4.00
Structure (SMILES): N[C@H]1C(O)O[C@H](CO)[C@@H](O)[C@@H]1O.O=S(=O)(O)O (some centres unmarked) [Glucosamine sulfate, glucosamine sulfate]
MMP-9 gene expression level (MMP-9): 114%
TMP-I gene expression level (TMP-I): 110%
Collagen II gene expression level (collagen II): 154%
ADAMTS-4 gene expression level (ADAMTS-4): 101%
Aggrecan gene expression level (human aggrecan): 81%
anti-inflammatory activity (in words) ([1]; LPS-stimulated, nitric oxide): marginal anti-inflammatory
Collagen 1 gene expression level (collagen I): 121%
